Assay results: ChEMBL document CHEMBL3872220, “Amphiphilic xanthones as a potent chemical entity of anti-mycobacterial agents with membrane-targeting properties” (Eur J Med Chem, 2016)
In brackets after ≈: the same amount, converted by molar mass.

Columns and labels:
Assay type in all cases: functional
[1] = system: Mycobacterium tuberculosis; experiment: Antimycobacterial activity against rifampicin, streptomycin and ethambutol resistant Mycobacterium tuberculosis clinical isolate 01;005 assessed as reduction in 2 log10 bacterial colonies measured after 14 to 21 days by agar dilution method
[2] = system: Mycobacterium tuberculosis; experiment: Antimycobacterial activity against isoniazid, streptomycin and ethambutol resistant Mycobacterium tuberculosis clinical isolate 01;104 assessed as reduction in 2 log10 bacterial colonies measured after 14 to 21 days by agar dilution method
[3] = system: Mycobacterium tuberculosis variant bovis BCG; experiment: Bactericidal activity against Mycobacterium bovis BCG ATCC 35734 assessed as log reduction in bacterial colonies at 2 times MIC measured at 9 hrs by time-kill assay

SMILES	MIC [1] [µg/mL]	MIC [2] [µg/mL]	Activity [3]
CCN(CC)CCCCOc1cc2oc3cc(OCCCCN(CC)CC)c(OC)c(CC=C(C)C)c3c(=O)c2c(O)c1CC=C(C)C	8 (≈ 12 µM)	4 (≈ 6.02 µM)	
COc1c(OCCCCN2CCOCC2)cc2oc3cc(OCCCCN4CCOCC4)c(CC=C(C)C)c(O)c3c(=O)c2c1CC=C(C)C	8 (≈ 11.5 µM)	4 (≈ 5.77 µM)	
CCCN(CCC)CCCCOc1cc2oc3cc(OCCCCN(CCC)CCC)c(OC)c(CC=C(C)C)c3c(=O)c2c(O)c1CC=C(C)C			2.8
